From patent US10730815B2, “Method of producing purified stilbene compounds” (MORINAGA & CO., LTD., priority 2014, dated 2020)
Values belong to the molecule of their own block, whether it stands above or below them.

Experiment: Precipitation of various stilbene compounds by γ-CD: concentration in supernatant (HPLC)
Assay type: physicochemical
Method: γ-CD solutions of six different concentrations (42.78, 85.56, 106.95, 128.33, 171.11, 213.89 mg/mL) were prepared.
The mixed solutions were stirred under light shielding conditions at 25° C. for 24 hours. Subsequently, they were subjected to centrifugation at 15,000 rpm at 25° C. for 5 minutes to collect the supernatants. These supernatants were further subjected to centrifugation using the same conditions to obtain another batch of supernatants.
Resveratrol (denoted by “Res” in the figure), rhapontigenin (denoted by “Rha” in the figure), and isorhapontigenin (denoted by “Isorha” in the figure) were used as the stilbene compounds to prepare respective solutions of the stilbene compounds. To each solution, γ-CD was added. Precipitation of these stilbene compounds by γ-CD and the relation between the concentration of γ-CD and the precipitation of the stilbene compounds were examined. Procedures for the preparation of the solutions and the measurement using HPLC were similar to those described in the above Example 1(3).

Concentration of Isorha in liquid (γ-CD 0 mg/mL final): 190000 ng/mL
Concentration of Isorha in liquid (γ-CD 12.8 mg/mL final): 0 ng/mL
Concentration of Isorha in liquid (γ-CD 25.7 mg/mL final): 0 ng/mL
Concentration of Isorha in liquid (γ-CD 32.1 mg/mL final): 0 ng/mL
Concentration of Isorha in liquid (γ-CD 38.5 mg/mL final): 0 ng/mL
Concentration of Isorha in liquid (γ-CD 51.3 mg/mL final): 0 ng/mL
Concentration of Isorha in liquid (γ-CD 64.2 mg/mL final): 0 ng/mL
SMILES: COc1cc(/C=C/c2cc(O)cc(O)c2)ccc1O [Isorha, isorhapontigenin]

Concentration of Res in liquid (γ-CD 0 mg/mL final): 28000 ng/mL
Concentration of Res in liquid (γ-CD 12.8 mg/mL final): 20000 ng/mL
Concentration of Res in liquid (γ-CD 25.7 mg/mL final): 12000 ng/mL
Concentration of Res in liquid (γ-CD 32.1 mg/mL final): 10000 ng/mL
Concentration of Res in liquid (γ-CD 38.5 mg/mL final): 8200 ng/mL
Concentration of Res in liquid (γ-CD 51.3 mg/mL final): 5800 ng/mL
Concentration of Res in liquid (γ-CD 64.2 mg/mL final): 3700 ng/mL
SMILES: Oc1ccc(/C=C/c2cc(O)cc(O)c2)cc1 [Res, Resveratrol]

Concentration of Rha in liquid (γ-CD 0 mg/mL final): 97000 ng/mL
Concentration of Rha in liquid (γ-CD 12.8 mg/mL final): 60000 ng/mL
Concentration of Rha in liquid (γ-CD 25.7 mg/mL final): 20000 ng/mL
Concentration of Rha in liquid (γ-CD 32.1 mg/mL final): 17000 ng/mL
Concentration of Rha in liquid (γ-CD 38.5 mg/mL final): 13000 ng/mL
Concentration of Rha in liquid (γ-CD 51.3 mg/mL final): ≤10000 ng/mL
Concentration of Rha in liquid (γ-CD 64.2 mg/mL final): ≤10000 ng/mL
SMILES: COc1ccc(/C=C/c2cc(O)cc(O)c2)cc1O [Rha, rhapontigenin]
